Patent US11571396B2, “Ketamine for treatment of ADNP syndrome and sensory processing deficits” (priority 2019, dated 2023)

Legend:
ADNP gene expression = details: cited from earlier work; for ADNP gene expression increase: somatosensory cortex of post-natal day 7 rats, sedative dose
growth cones = details: cited from earlier work
[1] = tested on: caspase-3 activation in the hippocampus and somatosensory cortex; test: Ketamine-induced neuronal cell death / injury, low-dose ketamine pre-treatment; assay type: in vivo, rats; details: for high dose ketamine induced injury: low dose ketamine 5 mg/kg, NAP administration
Description: ADNP induction may be partially responsible for the efficacy of a low-dose ketamine pre-treatment in preventing ketamine-induced neuronal cell death. […] It is therefore theorized that low-dose ketamine prevents high-dose ketamine injury at least in part by increasing expression of ADNP.

Neurons = Neurons treated with low concentration ketamine: ADNP levels and growth cones; assay type: cell-based
Description: We believe that low-dose ketamine, by inducing ADNP, does more than could be with NAP alone.

Molecule	ADNP gene expression increase (ADNP gene expression)	invasion of dynamic microtubules into growth cones (growth cones)	high dose ketamine induced injury [1]	apoptosis ([1]; high-dose ketamine, rats)	expression of ADNP ([1]; high-dose ketamine, rats)	ADNP levels ([1]; low-dose ketamine)	caspase-3 activation ([1]; low-dose ketamine, hippocampus and somatosensory cortex)	negative effects of decreased growth cones (Neurons; 50 μM)	ADNP levels (Neurons; 50 μM, compared with higher ketamine dosing)	location of primary increase in ADNP (Neurons; following ketamine treatment)	total cellular ADNP levels (Neurons; low concentration exposure, 50 or 100 μM)	ADNP in neurites (Neurons; low concentration of ketamine)	growth cones (Neurons; low concentration of ketamine)	gene expression of ADNP (ADNP gene expression; anesthetic doses)	ADNP protein levels (ADNP gene expression; low doses, including in the somatosensory cortex)	ADNP expression (ADNP gene expression; low doses)
C[C@]12N[C@H](Cc3ccccc31)c1ccccc12 [MK801]	1.5 fold	–	–	–	–	–	–	–	–	–	–	–	–	–	–	–
NAPVSIPQ	–	enhance the invasion of dynamic microtubules into growth cones	blocks high dose ketamine induced injury	–	–	–	–	–	–	–	–	–	–	–	–	–
CNC1(c2ccccc2Cl)CCCCC1=O (stereo not drawn) [ketamine]	1.5 fold	–	blocks high dose ketamine induced injury	induce apoptosis	induce	increases ADNP levels	prevents caspase-3 activation	not observed	increased at a rate equivalent to higher ketamine dosing	the primary increase in ADNP occurred in the nucleus	notably increased	significant increase	stably expanded growth cones	induce gene expression of ADNP	increase ADNP protein levels	induce ADNP expression
